The source made the active and inactive calls.
Tests used:
Protein skinhead-1 = molecular target: T1, Protein skinhead-1 (Caenorhabditis elegans, UniProt P34707); type: functional
T1 sequence (P34707 whole entry): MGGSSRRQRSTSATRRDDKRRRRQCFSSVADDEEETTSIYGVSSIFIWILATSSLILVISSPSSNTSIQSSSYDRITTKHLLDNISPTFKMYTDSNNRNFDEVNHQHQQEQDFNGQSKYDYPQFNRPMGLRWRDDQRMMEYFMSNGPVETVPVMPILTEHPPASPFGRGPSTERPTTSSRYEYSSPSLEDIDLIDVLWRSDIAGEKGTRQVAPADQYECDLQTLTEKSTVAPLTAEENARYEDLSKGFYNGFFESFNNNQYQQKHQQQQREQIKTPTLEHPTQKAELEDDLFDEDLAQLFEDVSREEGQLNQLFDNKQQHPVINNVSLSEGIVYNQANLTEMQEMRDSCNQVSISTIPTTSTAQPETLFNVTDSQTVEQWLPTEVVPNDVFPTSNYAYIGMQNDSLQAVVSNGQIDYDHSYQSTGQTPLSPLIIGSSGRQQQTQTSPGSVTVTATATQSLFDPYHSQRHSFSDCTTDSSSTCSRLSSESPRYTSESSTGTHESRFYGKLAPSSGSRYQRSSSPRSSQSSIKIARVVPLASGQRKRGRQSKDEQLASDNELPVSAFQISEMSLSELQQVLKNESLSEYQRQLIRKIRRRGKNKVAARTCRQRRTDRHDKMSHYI

[1] = molecular target: T2, Corticotropin-releasing factor receptor 2/Corticotropin-releasing factor-binding protein (Homo sapiens, UniProt P24387+Q13324); assay: activators of CRF receptor 2 with binding protein – uHTS hits, confirmation (AID 602473); type: functional; conditions: read-out: EC50_Mean
T2 sequence (Q13324 whole entry): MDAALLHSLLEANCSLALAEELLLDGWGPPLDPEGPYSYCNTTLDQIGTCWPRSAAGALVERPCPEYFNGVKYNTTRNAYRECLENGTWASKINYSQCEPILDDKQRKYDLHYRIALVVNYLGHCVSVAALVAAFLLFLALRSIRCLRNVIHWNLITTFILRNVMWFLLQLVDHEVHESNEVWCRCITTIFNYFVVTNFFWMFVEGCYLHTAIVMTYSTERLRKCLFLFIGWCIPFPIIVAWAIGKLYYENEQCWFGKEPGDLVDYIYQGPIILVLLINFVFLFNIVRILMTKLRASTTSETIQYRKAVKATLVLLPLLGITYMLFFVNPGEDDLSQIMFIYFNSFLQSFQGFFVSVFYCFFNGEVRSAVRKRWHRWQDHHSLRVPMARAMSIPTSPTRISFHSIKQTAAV
T2 sequence (P24387 whole entry): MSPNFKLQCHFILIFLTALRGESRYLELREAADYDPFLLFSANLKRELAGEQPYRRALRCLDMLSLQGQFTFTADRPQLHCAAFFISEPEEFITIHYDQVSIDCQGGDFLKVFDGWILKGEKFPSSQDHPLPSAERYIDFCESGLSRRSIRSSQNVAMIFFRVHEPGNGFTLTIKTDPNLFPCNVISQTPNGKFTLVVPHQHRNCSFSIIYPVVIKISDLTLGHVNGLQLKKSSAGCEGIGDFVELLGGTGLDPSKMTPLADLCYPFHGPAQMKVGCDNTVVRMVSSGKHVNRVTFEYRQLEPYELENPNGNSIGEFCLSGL

[2] = molecular target: T2, Corticotropin-releasing factor receptor 2/Corticotropin-releasing factor-binding protein; assay: Dose Response confirmation of uHTS hits for small molecule antagonists of the CRF-binding protein and CRF-R2 receptor complex.; type: functional; conditions: read-out: IC50_Mean
[3] = Trypanosoma cruzi growth suppression in host cells – NIH3T3 host cells, beta-gal luminescence, confirmation (AID 2044); type: functional, cell-based;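 further: intracellular parasites grown in NIH/3T3 mouse fibroblasts as host cells; luminescent beta-galactosidase reporter signal from transgenic T. cruzi replicating inside host cells; inhibitors lower the luminescence signal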
H9c2 = assay: cells; type: functional, cell-based; conditions: Rattus norvegicus, H9c2, Myocardium;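 further: confirmatory concentration-response retest of ultra-high-throughput screening hits for modulation of myocardial damage; cell death induced by hydrogen peroxide oxidative stress; compound pretreatment for 60 min then peroxide exposure for 2 h; potency is for protecting the cells against peroxide damage rather than for killing them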
[4] = NIH3T3 cell viability loss – ATP luminescence, mouse fibroblasts, counter-screen, dose response (AID 2010); type: functional, cell-based;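 further: cells exposed to compound for about 90 hours before reading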
Protein RecA = molecular target: T3, Protein RecA (Mycobacterium tuberculosis, UniProt P9WHJ3); assay: Fluorescence Cell-Free Homogeneous Dose Retest to Identify Inhibitors of RecA-Intein Splicing Activity. [Related pubchem assays (depositor defined):AID2097, AID2223, AID489010, AID492950]; type: functional
T3 sequence (P9WHJ3 whole entry): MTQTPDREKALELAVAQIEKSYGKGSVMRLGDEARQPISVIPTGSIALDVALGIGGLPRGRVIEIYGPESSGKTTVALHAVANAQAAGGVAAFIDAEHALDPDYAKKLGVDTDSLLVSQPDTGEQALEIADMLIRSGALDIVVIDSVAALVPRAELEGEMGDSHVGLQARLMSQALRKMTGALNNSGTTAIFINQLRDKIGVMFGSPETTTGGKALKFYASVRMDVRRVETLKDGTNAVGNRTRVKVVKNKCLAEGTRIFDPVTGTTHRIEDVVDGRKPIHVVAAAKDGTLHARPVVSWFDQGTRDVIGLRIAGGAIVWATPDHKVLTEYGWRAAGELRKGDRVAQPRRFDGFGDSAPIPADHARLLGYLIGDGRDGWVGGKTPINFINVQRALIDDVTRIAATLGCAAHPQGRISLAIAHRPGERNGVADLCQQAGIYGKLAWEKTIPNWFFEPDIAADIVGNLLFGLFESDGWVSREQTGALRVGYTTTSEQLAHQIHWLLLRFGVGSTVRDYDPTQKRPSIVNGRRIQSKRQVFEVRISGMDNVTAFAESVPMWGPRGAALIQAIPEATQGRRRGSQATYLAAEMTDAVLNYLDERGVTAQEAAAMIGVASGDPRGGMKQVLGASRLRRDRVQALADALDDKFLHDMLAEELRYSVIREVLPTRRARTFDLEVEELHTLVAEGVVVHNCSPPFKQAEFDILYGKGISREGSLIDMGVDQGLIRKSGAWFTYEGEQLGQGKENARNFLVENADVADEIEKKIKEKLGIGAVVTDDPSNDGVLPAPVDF

Large T antigen = Large T antigen (Simian virus 40, UniProt P03070); type: functional, Betapolyomavirus macacae;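 further: Confirmatory-stage PubChem screen for compounds that inhibit SV40 T antigen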
Chain of Large T antigen (P03070 whole entry): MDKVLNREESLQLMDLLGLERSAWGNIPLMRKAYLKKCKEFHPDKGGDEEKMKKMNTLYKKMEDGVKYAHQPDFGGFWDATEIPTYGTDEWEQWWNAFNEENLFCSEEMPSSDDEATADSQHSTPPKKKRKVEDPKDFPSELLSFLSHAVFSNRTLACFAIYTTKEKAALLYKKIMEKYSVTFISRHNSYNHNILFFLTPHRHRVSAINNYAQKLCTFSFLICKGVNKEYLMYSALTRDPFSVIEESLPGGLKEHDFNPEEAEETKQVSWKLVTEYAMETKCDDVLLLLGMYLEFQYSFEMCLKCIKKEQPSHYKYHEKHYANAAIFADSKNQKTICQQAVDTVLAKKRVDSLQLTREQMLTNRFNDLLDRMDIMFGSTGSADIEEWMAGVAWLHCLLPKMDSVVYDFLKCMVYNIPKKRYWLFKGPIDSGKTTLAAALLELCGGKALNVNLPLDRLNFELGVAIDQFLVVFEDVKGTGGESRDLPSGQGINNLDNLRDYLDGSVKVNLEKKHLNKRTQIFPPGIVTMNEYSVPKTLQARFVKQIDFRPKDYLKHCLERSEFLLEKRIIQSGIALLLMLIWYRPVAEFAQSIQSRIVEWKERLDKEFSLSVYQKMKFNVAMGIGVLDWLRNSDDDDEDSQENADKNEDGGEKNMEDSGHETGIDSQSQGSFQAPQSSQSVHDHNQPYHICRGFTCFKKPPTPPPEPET

[5] = molecular target: T4, Replicative DNA helicase DnaB (Mycobacterium tuberculosis, UniProt P9WMR3); assay: DnaB intein splicing inhibitors, dose response, biochemical, cell-free fluorescence (AID 449749); type: functional
T4 sequence (P9WMR3 whole entry): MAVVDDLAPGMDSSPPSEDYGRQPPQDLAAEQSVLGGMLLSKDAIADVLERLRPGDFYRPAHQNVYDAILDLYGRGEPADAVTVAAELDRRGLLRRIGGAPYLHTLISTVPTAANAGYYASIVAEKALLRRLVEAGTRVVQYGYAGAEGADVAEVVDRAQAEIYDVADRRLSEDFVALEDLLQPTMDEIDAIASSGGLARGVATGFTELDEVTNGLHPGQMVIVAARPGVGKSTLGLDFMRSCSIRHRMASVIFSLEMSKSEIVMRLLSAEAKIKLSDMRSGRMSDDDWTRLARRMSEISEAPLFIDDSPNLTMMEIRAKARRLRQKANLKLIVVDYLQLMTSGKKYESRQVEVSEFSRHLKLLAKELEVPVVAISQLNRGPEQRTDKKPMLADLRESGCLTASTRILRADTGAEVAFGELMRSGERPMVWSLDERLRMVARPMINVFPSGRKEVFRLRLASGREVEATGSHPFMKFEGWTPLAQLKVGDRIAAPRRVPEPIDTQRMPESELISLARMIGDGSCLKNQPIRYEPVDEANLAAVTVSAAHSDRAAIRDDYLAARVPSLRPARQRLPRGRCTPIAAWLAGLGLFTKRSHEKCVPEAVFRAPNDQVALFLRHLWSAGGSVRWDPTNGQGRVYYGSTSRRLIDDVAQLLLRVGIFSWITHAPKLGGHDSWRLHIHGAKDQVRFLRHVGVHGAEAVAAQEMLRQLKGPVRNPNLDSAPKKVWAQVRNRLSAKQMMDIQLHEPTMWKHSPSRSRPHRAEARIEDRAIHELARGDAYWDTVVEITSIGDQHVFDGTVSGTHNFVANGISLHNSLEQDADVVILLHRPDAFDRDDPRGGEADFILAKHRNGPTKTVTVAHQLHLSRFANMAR

[6] = molecular target: T5, Rac GTPase-activating protein 1 (Homo sapiens, UniProt Q9H0H5); assay: blockers of MgcRacGAP-driven Rac1 GTP hydrolysis – biochemical, ADP Hunter fluorescence, primary and confirmatory, confirmation (AID 624330); type: functional
T5 sequence (Q9H0H5 whole entry): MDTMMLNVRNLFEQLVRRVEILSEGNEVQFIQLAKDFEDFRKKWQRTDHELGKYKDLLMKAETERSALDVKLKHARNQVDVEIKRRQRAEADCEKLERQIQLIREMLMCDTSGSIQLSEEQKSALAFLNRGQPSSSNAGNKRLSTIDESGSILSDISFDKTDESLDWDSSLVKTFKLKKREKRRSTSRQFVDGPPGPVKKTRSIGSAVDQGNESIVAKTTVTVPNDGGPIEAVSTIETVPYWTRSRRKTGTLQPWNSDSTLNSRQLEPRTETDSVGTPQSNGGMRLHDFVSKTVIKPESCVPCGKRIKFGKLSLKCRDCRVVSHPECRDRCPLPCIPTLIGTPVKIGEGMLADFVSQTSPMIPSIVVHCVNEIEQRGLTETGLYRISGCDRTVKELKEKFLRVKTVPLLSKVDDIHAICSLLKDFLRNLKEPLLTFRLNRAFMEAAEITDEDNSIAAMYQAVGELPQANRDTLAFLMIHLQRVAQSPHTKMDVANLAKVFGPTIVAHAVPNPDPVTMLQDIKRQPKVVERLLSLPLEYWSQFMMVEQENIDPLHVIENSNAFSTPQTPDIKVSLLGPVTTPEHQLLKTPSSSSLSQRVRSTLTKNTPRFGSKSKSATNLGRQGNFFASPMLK

Structure (SMILES)	EC50 [1]	IC50 [2]	other results
O=S(=O)(c1ccc(F)cc1)n1ccc(-c2cccc(OCc3c(F)cccc3Cl)c2)n1	–	–	IC50 (Protein skinhead-1): > 100 µM (inactive)
CCC(=O)c1ccc(OCC(=O)NCCCN2CCOCC2)cc1	> 53 µM (inactive)	> 47.1 µM (inactive)	–
CS(=O)(=O)N1CCN(C(=O)COc2ccc3ccccc3c2)CC1	> 53 µM (inactive)	> 47.1 µM (inactive)	–
COc1ccc2nc(O)c(CN(Cc3ccco3)C(c3nnnn3Cc3ccccc3)C(C)C)cc2c1 (stereo not drawn)	–	–	EC50 [3]: > 60 µM (not active); IC50 (H9c2): > 79 µM (inactive); EC50 [4]: > 60 µM (not active)
CCN(C(=O)CCc1nnc2ccc(N3CCC4(CC3)OCCO4)nn12)c1ccccc1	> 53 µM (inactive)	> 47.1 µM (inactive)	–
Cc1cccc(NC(=O)Cc2ccc(NC3=NC4CS(=O)(=O)CC4S3)cc2)c1 (stereo not drawn)	> 53 µM (inactive)	> 47.1 µM (inactive)	–
Cc1cc(F)ccc1S(=O)(=O)N(C(=O)c1ccncc1)c1ccc(OC(=O)c2ccncc2)cc1	–	–	EC50 (Protein RecA): 14.1 µM (active); IC50 (Large T antigen): 50.7 µM (active); AC50 [5]: 4.53 µM (active)
O=C(Nc1ccccc1)Nc1csc2ccccc12	–	–	IC50 (Protein skinhead-1): > 100 µM (inactive)
O=C1CCSc2c1ccc1ccccc21	> 53 µM (inactive)	> 47.1 µM (inactive)	–
CN(C(=O)COC(=O)CCc1nc2ccccc2c(=O)[nH]1)C1CCS(=O)(=O)C1 (stereo not drawn)	> 53 µM (inactive)	40.1 µM (active)	–
O=C(Cn1nc(Cl)nc1Cl)Nc1ccccc1	> 53 µM (inactive)	> 47.1 µM (inactive)	–
CCCCC(=O)NCc1ccc2c(c1)cc(C)n2C	–	–	IC50 (Protein skinhead-1): > 100 µM (inactive)
CCN1C(=O)/C(=C/c2nc3ccccc3c(=O)n2-c2ccccc2)c2ccccc21	–	–	IC50 (H9c2): > 79 µM (inactive)
C/C(=N\CCCn1ccnc1)c1c(-c2ccccc2)[nH]n(-c2nc3ccccc3s2)c1=O	–	–	IC50 (H9c2): > 79 µM (inactive)
CCc1c(C)nc(SCC(=O)N2CCN(c3ccccc3OC)CC2)nc1O	> 53 µM (inactive)	> 47.1 µM (inactive)	–
CCOC(=O)Cc1nnc(O)c2ccccc12	–	–	IC50 (H9c2): 11.1 µM (active)
NC(=NOCC(=O)Nc1ccccc1)c1nonc1N	> 53 µM (inactive)	> 47.1 µM (inactive)	–
COc1ccc(-c2cc(C(=O)NC3CCCC3)c3ccccc3n2)cc1OC	> 53 µM (inactive)	> 47.1 µM (inactive)	–
Nc1nn(S(=O)(=O)c2ccccc2)cc1-c1ccc([N+](=O)[O-])cc1	> 53 µM (inactive)	> 47.1 µM (inactive)	–
CCOc1cccc(Nc2cc3n(c(=O)n2)CCc2cc(OC)c(OC)cc2-3)c1	–	–	IC50 (H9c2): 12.8 µM (active)
COc1cc(NC(=O)[C@H](C)NC(=O)N2CCn3c2nc2ccccc23)cc(OC)c1	> 53 µM (inactive)	> 47.1 µM (inactive)	–
O=C1/C(=C/c2cccs2)SC(=S)N1CC(=O)N1CCCCC1CCO (stereo not drawn)	–	–	IC50 (Protein skinhead-1): > 100 µM (inactive)
CC(NC(=O)Cn1nc(C(=O)O)c2ccccc2c1=O)c1ccccc1 (stereo not drawn)	–	–	IC50 (H9c2): 18.3 µM (active)
CCOc1ccc2nc(O)c(CN(CCO)C3(c4nnnn4C4CCCCC4)CCCCC3)cc2c1	–	–	IC50 (H9c2): 26.4 µM (active)
CCOc1cc(/C=N\NC(=O)CC(=O)NCCc2ccccc2)ccc1O	–	–	IC50 [6]: 46.5 µM (active); IC50 (Large T antigen): 7.94 µM (active)
CCOC(=O)C(C)On1c(-c2ccc(Cl)cc2)nc2ccc([N+](=O)[O-])cc21 (stereo not drawn)	–	–	IC50 (Protein skinhead-1): > 100 µM (inactive)

— ChEMBL document CHEMBL1201862, “PubChem BioAssay data set” (2004)
